The source of these data is US20190159451A1, “ACTIVE COMPOUND COMBINATIONS AND METHODS TO PROTECT THE PROPAGATION MATERIAL OF PLANTS” (Bayer CropScience Aktiengesellschaft, priority 2016, published 2019).

Series [1] deals with Ctenocephalides felis. Put plainly: Ctenocephalides felis in-vitro contact test, adult cat flea. It counts as in vivo. Particulars: 5 μg/cm^2 (=500 g/ha), after 48 hours. As to the method: Ctenocephalides felis—In-Vitro Contact Tests Adult Cat Flea
9 mg compound is solved in 1 ml acetone and diluted with acetone to the desired concentration. 250 μl of the test solution is filled in 25 ml glass test tubes and homogeneously distributed on the inner walls by rotation and tilting on a shaking device (2 h at 30 rpm). With a compound concentration of 900 ppm, an inner surface of 44.7 cm^2 and a homogeneous distribution, a dose of […] is achieved.
After the solvent has evaporated, each test tube is filled with 5-10 adult cat fleas (Ctenocephalides felis), closed with a perforated lid and incubated in a lying position at room temperature and relative humidity. After 48 hours efficacy is determined. The fleas are patted on the ground of the tubes and are incubated on a heating plate at 45-50° C. for at most 5 minutes. Immotile or uncoordinated moving fleas, which are not able to escape the heat by climbing upwards, are marked as dead or moribund.
An efficacy of 100% means all fleas are dead or moribund; 0% means no fleas are dead or moribund.

The subject of series [2] is Lucilia cuprina. Put plainly: Lucilia cuprina test (LUCICU). It counts as in vivo. Particulars: 48 h. The protocol: Lucilia cuprina—Test (LUCICU)
(§1) Solvent: dimethyl sulfoxide
10 mg active compound are dissolved in 0.5 ml Dimethylsulfoxid. Serial dilutions are made to obtain the desired rates.
Approximately 20 1st instar larvae of the Australian sheep blowfly (Lucilia cuprina) are transferred into a test tube containing minced horse meat and compound solution of the desired concentration.
After 2 days mortality in % is determined. 100% means all the larvae have been killed; 0% means none of the larvae have been killed.

Series [3] concerns Musca domestica. Put plainly: Musca domestica test (MUSCDO). The format is in vivo. Conditions: for mortality: after 2 days, adult house flies. The protocol:
Musca domestica—Test (MUSCDO)
as §1
To produce a suitable preparation of active compound, 10 mg of active compound are dissolved in 0.5 ml solvent, and the concentrate is diluted with water to the desired concentration.
10 adult house flies (Musca domestica) are transferred into a container, containing a sponge soaked with a mixture of sugar solution and compound solution of the desired concentration.
After 2 days mortality in % is determined. 100% means all the flies have been killed; 0% means none of the flies have been killed.

In series [4] the test system is Diabrotica balteata. Nature of the series: Diabrotica balteata spray test. The format is in vivo. Conditions: 160 μg/well, after 7 days, larvae on germinated wheat seeds. The protocol: Diabrotica balteata—Spray Test
(§2) Solvent: 78.0 parts by weight of acetone • • 1.5 parts by weight of dimethylformamide
(§3) Emulsifier: alkylarylpolyglycol ether
(§4) To produce a suitable preparation of active compound, 1 part by weight of active compound is mixed with the stated amount of solvent, and the concentrate is diluted with water, containing an emulsifier concentration of 1000 ppm, to the desired concentration. Further test concentrations are prepared by dilution with emulsifier containing water.
Soaked wheat seeds (Triticum aestivum) are placed in a multiple well plate filled with agar and some water and are incubated for 1 day to germinate (5 seeds per well). The germinated wheat seeds are sprayed with a test solution containing the desired concentration of the active ingredient. Afterwards each unit is infected with 10-20 larvae of the banded cucumber beetle (Diabrotica balteata).
After 7 days efficacy in % is determined. 100% means all the seedlings have grown up like in the untreated, uninfected control; 0% means none of the seedlings have grown.

The test system of series [5] is Myzus persicae. Put plainly: Myzus persicae spray test. It counts as in vivo. Conditions: for mortality: 100 g/ha, after 6 days, Chinese cabbage leaf disks. As to the method:
Myzus persicae—Spray Test
(§5) Solvent: 78.0 parts by weight acetone • 1.5 parts by weight dimethylformamide
as §3
(§6) To produce a suitable preparation of active compound, 1 part by weight of active compound is mixed with the stated amount of solvents and is diluted with water, containing an emulsifier concentration of 1000 ppm, to the desired concentration. Further test concentrations are prepared by dilution with emulsifier containing water.
Chinese cabbage (Brassica pekinensis) leaf disks infected with all instars of the green peach aphid (Myzus persicae), are sprayed with a preparation of the active ingredient of the desired concentration.
After 6 days mortality in % is determined. 100% means all aphids have been killed and 0% means none of the aphids have been killed.

The nature of series [6]: Log P (HCOOH). It counts as physicochemical. Conditions: HCOOH (formic acid); read-out: Log P-Wert (HCOOH).
In series [7] the test system is Myzus persicae. Nature of the series: Myzus persicae oral test. The format is in vivo. The protocol: Solvent: 100 parts by weight acetone
To produce a suitable preparation of active compound, 1 part by weight of active compound is mixed with the stated amount of solvent, and the concentrate is diluted with water to the desired concentration. 50 μl compound solution is filled in microtiter plates and 150 μl IPL41 insect medium (33%+15% sugar) is added to obtain a total volume of […] per well. Afterwards the plates are sealed with parafilm through which a mixed population of the green peach aphid (Myzus persicae) can suck on the compound preparation.
After 5 days mortality in % is determined. 100% means all aphids have been killed and 0% means none of the aphids have been killed.

Series [8] has as its system Nezara viridula. Put plainly: Nezara viridula spray test. The format is in vivo. The protocol:
Nezara viridula—Spray Test
as §2, §3, §4
Barley plants (Hordeum vulgare) infested with larvae of the southern green stink bug (Nezara viridula) are sprayed with a test solution containing the desired concentration of the active ingredient.
After 4 days mortality in % is determined. 100% means all the stink bugs have been killed; 0% means none of the stink bugs have been killed.

Series [9] concerns Nilaparvata lugens. Nature of the series: Nilaparvata lugens spray test. It counts as in vivo. The protocol: Nilaparvata lugens—Spray Test
as §2, §3, §6
Rice plants (Oryza sativa) are sprayed with a preparation of the active ingredient of the desired concentration and the plants are infested with the brown planthopper (Nilaparvata lugens).
After 4 days mortality in % is determined. 100% means all planthoppers have been killed and 0% means none of the planthoppers have been killed.

Series [10] deals with Tetranychus urticae. Nature of the series: whole plant or invertebrate. It counts as in vivo. Conditions: in Phaseolus vulgaris, foliar, 144 h. The protocol: Tetranychus urticae—Spray Test OP-Resistant
as §5, §3, §6
French bean (Phaseolus vulgaris) leaf disks infected with all instars of the two spotted spidermite (Tetranychus urticae), are sprayed with a preparation of the active ingredient of the desired concentration.
After 6 days mortality in % is determined. 100% means all spider mites have been killed and 0% means none of the spider mites have been killed.

The test system of series [11] is Phaedon cochleariae. Put plainly: Phaedon cochleariae spray test. It counts as in vivo. Conditions: 20 g/ha, after 7 days, larvae on Chinese cabbage leaf disks. As to the method: Phaedon cochleariae—Spray Test
as §2, §3, §6
Chinese cabbage (Brassica pekinensis) leaf disks are sprayed with a preparation of the active ingredient of the desired concentration. Once dry, the leaf disks are infested with mustard beetle larvae (Phaedon cochleariae).
After 7 days mortality in % is determined. 100% means all beetle larvae have been killed and 0% means none of the beetle larvae have been killed.

Where [12] appears, read: Myzus persicae, in Brassica rapa, foliar, 144 h.

What is called mortality is the percentage killed. Low readings indicate more survivors, high ones fewer survivors. `O=C(/C=C1\SCCN1Cc1ccc(Cl)nc1)C(F)(F)F` [Example I-1, 3-[3-[(6-Chloro-3-pyridinyl)methyl]-2-thiazolidinylidene]-1,1,1-trifluoro-2-propanone]: the “efficacy (fleas dead or moribund)” value in series [1] is 100%. Moreover, in series [2], the mortality at 100 ppm is 100%. The mortality at 4 ppm in [3] (Musca domestica, 48 h) worked out at 90%. In [4], the “efficacy (seedlings grown)” value stood at 100%. In series [5] (setting [12]), this molecule showed a mortality at 100 g/ha of 90%. The chromatographic logP in series [6] stood at 2.21.

As for `O=C(/C=C1\SCCN1Cc1ccc(F)nc1)C(F)(F)F` [Example I-2, 3-[3-[(6-Fluoro-3-pyridinyl)methyl]-2-thiazolidinylidene]-1,1,1-trifluoro-2-propanone], the “efficacy (fleas dead or moribund)” value in [1] is 100%. Moreover, the mortality at 100 ppm in [2] was determined as 100%. In series [3] (Musca domestica, 48 h), the mortality at 4 ppm was 80%. Moreover, the mortality at 20 ppm worked out at 95% in series [3] (Musca domestica, 48 h) and 100% in series [7] (Myzus persicae, po, 120 h). For the same molecule, in series [4], the “efficacy (seedlings grown)” value was 100%. Besides, the mortality at 500 g/ha is 100% in series [5] (setting [12]); 90% in series [8] (Nezara viridula, in Hordeum vulgare, 96 h); 100% in series [9] (Nilaparvata lugens, in Oryza sativa, 96 h); 80% in [10]. The chromatographic logP in series [6] was 2.25.

Consider `O=C(/C=C1\NCCN1Cc1ccc(Br)nc1)C(F)(F)F` [Example I-3, 3-[1-[(6-Bromo-3-pyridinyl)methyl]-2-imidazolidinylidene]-1,1,1-trifluoro-2-propanone], for which, in series [1], the “efficacy (fleas dead or moribund)” value was found to be 100%. This molecule also came in with a mortality at 100 ppm in [2] of 100%. In addition, in [3] (Musca domestica, 48 h), the mortality at 4 ppm was found to be 80%. Moreover, the “efficacy (seedlings grown)” value in series [4] is listed as 100%. In series [5] (setting [12]), the mortality at 100 g/ha was 90%.

Turning to `O=C(C=C1SCCN1Cc1ccc(Br)nc1)C(F)(F)F` [Example I-4], the “efficacy (fleas dead or moribund)” value in series [1] came to 100%. Also, in series [3] (4 ppm), the mortality turned out to be 100%. Further, the “efficacy (seedlings grown)” value in series [4] was found to be 100%.

Regarding `O=C(C=C1NCCN1Cc1ccc(Cl)nc1)C(F)(F)F` [Example I-5], the “efficacy (fleas dead or moribund)” value in series [1] amounted to 100%. In series [3] (4 ppm), the mortality was 100%.

For the molecule `O=C(C=C1NCCCN1Cc1ccc(F)nc1)C(F)(F)F` [Example I-6], in series [1], the “efficacy (fleas dead or moribund)” value was 100%. Moreover, in [3] (20 ppm), the mortality was found to be 100%. The “efficacy (seedlings grown)” value in series [4] was found to be 100%.

In the case of `O=C(C=C1NCCCN1Cc1ccc(Cl)nc1)C(F)(F)F` [Example I-7], the “efficacy (fleas dead or moribund)” value in series [1] is reported as 100%. Moreover, the figures for the mortality in [5] and in series [11] were 90% and 100%, respectively.

`O=C(C=C1NCCCN1Cc1ccc(Br)nc1)C(F)(F)F` [Example I-8]: in [1], the “efficacy (fleas dead or moribund)” value was found to be 100%. In addition, the mortality in [3] (20 ppm) came to 100%; in series [7] (20 ppm, after 5 days, oral) it was 100%; in [5], 90%; in series [8] (500 g/ha, after 4 days, larvae on barley plants), 90%; in series [9] (500 g/ha, after 4 days, rice plants), 100%; in [11] it was 100%. In addition, in [4], the “efficacy (seedlings grown)” value was 100%.
